The assay has as its system Herpes simplex 1 Virus (HSV-1). Nature of the assay: Activity against systemic HSV-1 infection in NMRI mice, oral treatment. The class given is in vivo, NMRI-Mäuse. Conditions: for ED50: read-out: IC50 (nach Reed und Muench); for mittlere Überlebenszeit (Tage): oral. An excerpt:
Wirkung gegen systemische Herpes simplex 1 Virus (HSV-1) Infektion: NMRI-Mäuse, spezifisch pathogenfrei, im Gewicht von 15 bis 18 g wurden intraperitoneal mit HSV-1 infiziert und anschließend mit den erfindungsgemäßen Verbindungen oral therapiert. Die Behandlung erfolgte erstmals 3 Stunden nach der Infektion und wurde zweimal täglich über 4 Tage fortgesetzt. Der Behandlungserfolg wurde anhand des Krankheitsverlaufes und der Überlebensrate gegenüber der unbehandelten Infektionskontrolle bestimmt. Letztere erhielt anstelle der erfindungsgemäßen Verbindungen physiologische Kochsalzlösung appliziert. Die Beobachtungszeit betrug zwei Wochen. Tabelle 1 zeigt die Ergebnisse dieser Untersuchung.

Setting [1] is: Human alphaherpesvirus 1, 336 h, NMRI mouse, HSV-1 i.p. infection, oral treatment, 9 doses (first 3 h after infection, then twice daily over 4 days), 2 weeks observation.

SMILES strings stand for the structures. Like-named read-outs stand apart in the source and are kept apart here. Some results are limits rather than exact numbers.

These results are taken from patent EP0693071B1, “NEW CARBOXYLIC-ACID ESTERS OF 2-AMINO-7-(1,3-DIHYDROXY-2-PROPOXYMETHYL)PURINE, THE PREPARATION OF SUCH ESTERS AND THEIR USE” (HOECHST AKTIENGESELLSCHAFT, priority 1993, dated 1994).

As for `CC(C)(C)C(=O)OCC(COC(=O)C(C)(C)C)OCn1cnc2nc(N)ncc21` [Beispiel 1, 2-Amino-7-[(1,3-bis-pivaloyloxy-2-propoxy)methyl]purin], the ED50 under setting [1] was 19.7 µmol/kg.

As to `CCCCC(=O)OCC(COC(=O)CCCC)OCn1cnc2nc(N)ncc21` [Beispiel 2, 2-Amino-7-[(1,3-bis-valeroyloxy-2-propoxy)methyl]purin], under setting [1], the ED50 amounted to 12 µmol/kg. For the setting “Dosierung 9 x 10 µmol/kg”, the “mittlere Überlebenszeit (Tage)” value was 9 ± 1,7 Tage.

In the case of `CCCCC(=O)OCC(CO)OCn1cnc2nc(N)ncc21` (stereo not shown) [Beispiel 3, 2-Amino-7-[(1-hydroxy-3-valeroyloxy-2-propoxy)methyl]purin], under setting [1], the ED50 was less than 9.3 µmol/kg. Also, the “mittlere Überlebenszeit (Tage)” value (Dosierung 9 x 9,3 µmol/kg) was determined as 10 Tage.

On to `COCC(=O)OCC(COC(=O)COC)OCn1cnc2nc(N)ncc21` [Beispiel 6, 2-Amino-7-[(1,3-bis-methoxyacetoxy-2-propoxy)methyl]purin], for which the ED50 under setting [1] was less than 10 µmol/kg. Moreover, the “mittlere Überlebenszeit (Tage)” value (Dosierung 9 x 10 µmol/kg) is listed as 9 Tage.

Consider `CCOCC(=O)OCC(COC(=O)COCC)OCn1cnc2nc(N)ncc21` [Beispiel 7, 2-Amino-7-[(1,3-bis-ethoxyacetoxy-2-propoxy)methyl]purin], for which the ED50 under setting [1] was determined as 13.2 µmol/kg.

As to `Nc1ncc2c(ncn2COC(COC(=O)C2CCCCC2)COC(=O)C2CCCCC2)n1` [Beispiel 9, 2-Amino-7-[(1,3-bis-cyclohexancarbonyloxy-2-propoxy)methyl]purin], under setting [1], the ED50 stood at 5.6 µmol/kg.

For `Nc1ncc2c(ncn2COC(CO)COC(=O)C2CCCCC2)n1` (stereo not shown) [Beispiel 10, 2-Amino-7-[(1-cyclohexancarbonyloxy-3-hydroxy-2-propoxy)methyl] purin], the ED50 under setting [1] came out at 3.6 µmol/kg.

For the molecule `Nc1ncc2c(ncn2COC(COC(=O)c2ccccc2)COC(=O)c2ccccc2)n1` [Beispiel 11, 2-Amino-7-[(1,3-bis-benzoyloxy-2-propoxy)methyl]purin], under setting [1], the ED50 was determined as 17.3 µmol/kg.

For the molecule `Nc1ncc2c(ncn2COC(COC(=O)Cc2ccccc2)COC(=O)Cc2ccccc2)n1` [Beispiel 12, 2-Amino-7-[(1,3-bis-phenylacetoxy-2-propoxy)methyl]purin], where the note is “Human alphaherpesvirus 1, po, 336 h”, the ED50 was less than 10 µmol/kg.

Take `Nc1ncc2c(ncn2COC(COC(=O)c2ccsc2)COC(=O)c2ccsc2)n1` [Beispiel 13]: the ED50 under setting [1] was 5.6 µmol/kg.

Regarding `Nc1ncc2c(ncn2COC(CO)COC(=O)c2ccsc2)n1` (stereo not shown) [Beispiel 14], the ED50 under setting [1] was determined as 11.5 µmol/kg.

For the molecule `Nc1ncc2c(ncn2COC(COC(=O)Cc2cccnc2)COC(=O)Cc2cccnc2)n1` [Beispiel 15], the ED50 under setting [1] turned out to be 10 µmol/kg.

For the molecule `Nc1ncc2c(ncn2COC(CO)CO)n1` [Formel 1, R1=R2=H (=Verb. der Formel 1'), 2-Amino-7-[(1,3-dihydroxy-2-propoxy)methyl]purin, reference compound], under setting [1], the ED50 turned out to be 34.5 µmol/kg.
